Experimental data taken from paper PMC11509018, “Evaluation of the Role of Tanshinone I in an In Vitro System of Charcot-Marie-Tooth Disease Type 2N” (International Journal of Molecular Sciences, 2024).
Positions count from the first letter of the chain named.

What was measured:
AlaRS^E337K = molecular target: T1, AlaRS^E337K (Homo sapiens, UniProt P49588, E337K); assay: Proteolytic digestion assay (trypsin, SDS-PAGE); conditions: three hours
T1 construct: made in house; host or cells: E. coli BL21 (DE3), pET-21a
T1 sequence (P49588 1-968 E337K): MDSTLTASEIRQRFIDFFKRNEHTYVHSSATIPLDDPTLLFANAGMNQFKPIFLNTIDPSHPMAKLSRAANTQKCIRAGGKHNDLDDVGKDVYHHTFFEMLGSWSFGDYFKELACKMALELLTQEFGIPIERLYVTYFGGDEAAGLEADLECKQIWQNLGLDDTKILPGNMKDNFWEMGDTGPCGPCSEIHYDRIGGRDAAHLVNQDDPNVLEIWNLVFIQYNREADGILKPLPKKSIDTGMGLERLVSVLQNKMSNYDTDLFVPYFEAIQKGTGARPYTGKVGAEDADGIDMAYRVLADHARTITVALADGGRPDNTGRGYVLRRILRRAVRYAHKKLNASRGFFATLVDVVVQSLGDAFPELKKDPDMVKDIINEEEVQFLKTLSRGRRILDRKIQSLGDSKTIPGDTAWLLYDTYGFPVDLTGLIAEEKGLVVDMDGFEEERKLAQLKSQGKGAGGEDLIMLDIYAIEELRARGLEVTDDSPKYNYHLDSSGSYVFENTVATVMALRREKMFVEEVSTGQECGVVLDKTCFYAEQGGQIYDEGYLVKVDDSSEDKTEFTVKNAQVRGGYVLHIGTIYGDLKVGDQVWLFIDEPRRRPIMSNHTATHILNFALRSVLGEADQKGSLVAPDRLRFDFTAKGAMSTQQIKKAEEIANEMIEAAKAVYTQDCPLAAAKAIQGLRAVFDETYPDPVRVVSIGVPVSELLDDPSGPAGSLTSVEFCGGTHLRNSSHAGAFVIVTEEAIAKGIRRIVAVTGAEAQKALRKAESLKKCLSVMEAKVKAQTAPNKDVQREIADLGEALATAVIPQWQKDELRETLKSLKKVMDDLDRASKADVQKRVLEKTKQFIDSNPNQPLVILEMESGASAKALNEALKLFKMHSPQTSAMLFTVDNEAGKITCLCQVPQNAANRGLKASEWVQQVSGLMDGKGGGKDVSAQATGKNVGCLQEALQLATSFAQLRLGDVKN
Text: (§1) Furthermore, we examined the interaction of Tanshinone I with additional AlaRS CMT mutants capable of binding to Nrp1 and causing conformational changes by BLI and proteolysis assays on additional related mutants.
(§2) Figure 5 BLI and proteolytic digestion assay of AlaRS mutants with Tanshinone I. Binding sensorgrams for the interaction of Tanshinone I with immobilized AlaRS^R329H (A), AlaRS^G102R (C), AlaRS^R326W (E), and AlaRS^E337K (G). Each sensorgram contains five curves generated from five different concentrations. The KD values are presented as the mean ± SD and experiments were performed in triplicate. The AlaRS^N71Y (B), AlaRS^G102R (D), AlaRS^R326W (F), and AlaRS^E337K (H) proteins (in the presence and absence of Tanshinone I) were incubated with trypsin at different concentrations for three hours before the reactions were quenched, and the products were separated by SDS-PAGE.

AlaRS^N71Y = molecular target: T2, AlaRS^N71Y (Homo sapiens, UniProt P49588, N71Y); assay: Proteolytic digestion assay (trypsin, SDS-PAGE); conditions: three hours
T2 construct: made in house; host or cells: E. coli BL21 (DE3), pET-21a
T2 sequence (P49588 1-968 N71Y): T1 sequence (P49588 1-968 E337K) with N71Y, K337E
Text: as §1, §2

Effect on proteolytic fragments / conformation (AlaRS^N71Y): significant conformational change
Structure (SMILES): Cc1coc2c1C(=O)C(=O)c1c-2ccc2c(C)cccc12 [Tanshinone I]
Effect on proteolytic fragments / conformation (AlaRS^E337K): altered band patterns after Tanshinone I treatment
